{"source": "PubChem BioAssay (NCI)", "test_in_all_cases": "NCI anticancer screen, dose series, 384-well format", "key": {"NCI-H460 NSCLC": {"system": "NCI-H460 NSCLC"}, "SNB-75 CNS": {"system": "SNB-75 CNS"}, "UO-31 renal": {"system": "UO-31 renal"}, "SF-268 CNS": {"system": "SF-268 CNS"}, "MALME-3M melanoma": {"system": "MALME-3M melanoma"}, "A498 renal": {"system": "A498 renal"}, "786-0 renal": {"system": "786-0 renal"}, "SK-MEL-5 melanoma": {"system": "SK-MEL-5 melanoma"}, "ACHN renal": {"system": "ACHN renal"}, "HS 578T breast": {"system": "HS 578T breast"}, "SN12C renal": {"system": "SN12C renal"}, "SW-620 colon": {"system": "SW-620 colon"}, "OVCAR-8 ovarian": {"system": "OVCAR-8 ovarian"}}, "note": "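GI50: concentration for 50% inhibition of growth. TGI denotes the concentration required for complete inhibition of growth.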", "data": [{"compound": "O=C(Cc1ccccc1)Nc1nnc(CCSCCc2nnc(NC(=O)Cc3ccccc3)s2)s1", "values": [{"measurement": "GI50", "setting": "NCI-H460 NSCLC", "value": 10.8, "unit": "µM"}, {"measurement": "TGI", "setting": "NCI-H460 NSCLC", "value": "> 100", "unit": "µM"}, {"measurement": "GI50", "setting": "SNB-75 CNS", "value": 8.91, "unit": "µM"}, {"measurement": "TGI", "setting": "SNB-75 CNS", "value": 27.2, "unit": "µM"}, {"measurement": "GI50", "setting": "UO-31 renal", "value": 46, "unit": "µM"}, {"measurement": "TGI", "setting": "UO-31 renal", "value": "> 100", "unit": "µM"}, {"measurement": "GI50", "setting": "SF-268 CNS", "value": 2.16, "unit": "µM"}, {"measurement": "TGI", "setting": "SF-268 CNS", "value": 9.86, "unit": "µM"}, {"measurement": "GI50", "setting": "MALME-3M melanoma", "value": 16.1, "unit": "µM"}, {"measurement": "TGI", "setting": "MALME-3M melanoma", "value": 45.5, "unit": "µM"}, {"measurement": "GI50", "setting": "A498 renal", "value": 3.13, "unit": "µM"}, {"measurement": "TGI", "setting": "A498 renal", "value": 11.9, "unit": "µM"}, {"measurement": "GI50", "setting": "786-0 renal", "value": 2.27, "unit": "µM"}, {"measurement": "TGI", "setting": "786-0 renal", "value": 8.96, "unit": "µM"}, {"measurement": "GI50", "setting": "SK-MEL-5 melanoma", "value": 10.4, "unit": "µM"}, {"measurement": "TGI", "setting": "SK-MEL-5 melanoma", "value": 52.5, "unit": "µM"}, {"measurement": "GI50", "setting": "ACHN renal", "value": "> 30", "unit": "µM"}, {"measurement": "TGI", "setting": "ACHN renal", "value": "> 100", "unit": "µM"}, {"measurement": "GI50", "setting": "HS 578T breast", "value": 0.9, "unit": "µM"}, {"measurement": "TGI", "setting": "HS 578T breast", "value": 3.37, "unit": "µM"}, {"measurement": "GI50", "setting": "SN12C renal", "value": 3.29, "unit": "µM"}, {"measurement": "TGI", "setting": "SN12C renal", "value": 19.5, "unit": "µM"}, {"measurement": "GI50", "setting": "SW-620 colon", "value": "> 60.9", "unit": "µM"}, {"measurement": "TGI", "setting": "SW-620 colon", "value": "> 100", "unit": "µM"}, {"measurement": "GI50", "setting": "OVCAR-8 ovarian", "value": 4.38, "unit": "µM"}, {"measurement": "TGI", "setting": "OVCAR-8 ovarian", "value": 17.9, "unit": "µM"}]}]}
